Test results from ChEMBL document CHEMBL1697781, “Assessment of the health effects of chemicals in humans: II. Construction of an adverse effects database for QSAR modeling” (Curr Drug Discov Technol, 2004).

Columns and labels:
Details in all cases: human; call rule not given here
Hepatotoxicity [1] = experiment: FDA HLAED, liver enzyme composite activity
Hepatotoxicity [2] = experiment: FDA HLAED, alkaline phosphatase increase
Hepatotoxicity [3] = experiment: FDA HLAED, serum glutamic oxaloacetic transaminase (SGOT) increase
Hepatotoxicity [4] = experiment: FDA HLAED, serum glutamic pyruvic transaminase (SGPT) increase
Hepatotoxicity [5] = experiment: FDA HLAED, lactate dehydrogenase (LDH) increase
Hepatotoxicity [6] = experiment: FDA HLAED, gamma-glutamyl transferase (GGT) increase
Throughout, for GGT Increase - Index Value: reference of the scale not given here.
Throughout, for LDH Increase - Index Value: reference of the scale not given here.

Compound | Composite Activity - Active (Hepatotoxicity [1]) | Composite Activity - Marginal (Hepatotoxicity [1]) | Composite Activity - Score (Hepatotoxicity [1]) | Alkaline Phosphatase Increase - Activity Score (Hepatotoxicity [2]) | Alkaline Phosphatase Increase - Index Value (Hepatotoxicity [2]) | Alkaline Phosphatase Increase - Number of Reports (Hepatotoxicity [2]) | SGOT Increase - Activity Score (Hepatotoxicity [3]) | SGOT Increase - Index Value (Hepatotoxicity [3]) | SGOT Increase - Number of Reports (Hepatotoxicity [3]) | SGPT Increase - Activity Score (Hepatotoxicity [4]) | SGPT Increase - Index Value (Hepatotoxicity [4]) | SGPT Increase - Number of Reports (Hepatotoxicity [4]) | LDH Increase - Activity Score (Hepatotoxicity [5]) | LDH Increase - Index Value (Hepatotoxicity [5]) | LDH Increase - Number of Reports (Hepatotoxicity [5]) | GGT Increase - Activity Score (Hepatotoxicity [6]) | GGT Increase - Index Value (Hepatotoxicity [6]) | GGT Increase - Number of Reports (Hepatotoxicity [6])
O=C(O)P(=O)(O)O [FOSCARNET] | 5 | 0 | Active | Active | 181.6 | >= 4 | Active | 121.1 | >= 4 | Active | 72.6 | >= 4 | Active | 48.4 | >= 4 | Active | 36.3 | < 4
C[C@@H]1O[C@@H]1P(=O)(O)O [FOSFOMYCIN] | 0 | 0 | Inactive | Inactive | 0 | < 4 | Inactive | 0 | < 4 | Inactive | 0 | < 4 | Inactive | 0 | < 4 | Inactive | 0 | < 4
CCC(=O)O[C@@H](O[P@](=O)(CCCCc1ccccc1)CC(=O)N1C[C@H](C2CCCCC2)C[C@H]1C(=O)O)C(C)C [FOSINOPRIL] | 0 | 0 | Inactive | Inactive | 0.3 | < 4 | Inactive | 1.5 | >= 4 | Inactive | 1.5 | >= 4 | Inactive | 0.6 | < 4 | Inactive | 0.6 | < 4
